According to US20040220239A1, “Inhibitors of serine protease activity methods and compositions for treatment of nitric oxide-induced clinical conditions” (priority 2003, published 2004):
Entries after “also recorded” stand apart in the source; their conditions may differ.

Assays:
Assay type in all cases: cell-based
[1] = test system: NF-κB; experiment: Electrophoretic mobility shift assay of NF-κB induced by interleukin-18; conditions: induced by incubation with IL-18, EMSA; FIG. 3
[2] = test system: RAW 264.7 macrophages; experiment: NO release induced by LPS and γ-IFN in macrophagic cells (nitrite, Greiss reagent); conditions: induction with γ-IFN and LPS, FIG. 1, FIG. 4
Protocol: RAW 264.5 macrophages are selected for measuring the effect of α1-antitrypsin on NO release. RAW 264.7 cell monolayers are pretreated for 1 hour with α1-antitrypsin (0.1-3 mg/ml), followed by costimulation by interferon-γ(10 U/ml), and LPS (1 ng/ml) for 18 hours. Aliquots (100 μl) of supernatant are combined with equal volumes of Greiss reagent and incubated at room temperature for 10 minutes. The colorimetric determination of nitrite concentration is measured by absorbance at 550 nm and quantified with a standard curve. The combination of LPS and interferon-γ is a potent stimulus for NO release in […] macrophages. The effect of α1-antitrypsin at 3 mg/ml on NO expression is measured.

[3] = test system: iNOS protein; experiment: Induction of iNOS protein by LPS and γ-interferon, Western blot; conditions: macrophagic cells, γ-IFN and LPS, FIG. 2
Protocol: RAW 264.7 macrophage monolayers are treated for 1 hour with α1-antitrypsin (3 mg/ml), followed by costimulation by interferon-γ (10 U/ml), and LPS (1 ng/ml) for 18 hours. The cells are lysed by exposure to lysis solution (50 mm Tris-HCl, pH 8.0, 137 mm NaCl, 10% (v/v) glycerol, 1% (v/v), Nonidet P-40, 1 mM NaF, 10 μg/ml leupeptin, […] aprotinin, 2 mM sodium vanadate, and 1 mM phenylmethylsulfonyl fluoride). Samples containing equivalent amounts of total protein are subjected to SDS-polyacrylamide gel electrophoresis. Western blots of the gels are prepared, non-specific sites blocked by incubation overnight with 5% non-fat dry milk, and iNOS detected by incubation with iNOS anti-serum (Alexis Corporation, 1:1000 in 5% (w/v) bovine serum albumin in a solution of 20 mm Tris-HCl, pH 7.6, 137 mM […], and 0.005% (v/v) Tween 20). Using horseradish peroxidase-conjugated second antibody, the antibody bound to iNOS is detected by enhanced chemiluminescence. The effect of the combination of interferon-γ, and LPS on induction of iNOS in the cell extract and the effect of pretreatment with α1-antitrypsin are measured.

[4] = test system: herpes simplex virus (HSV); experiment: Herpes simplex virus replication; conditions: FIG. 7
[5] = test system: p-ERK (p42/p44 MAP kinase); experiment: Western blot of p-ERK expression; conditions: FIG. 5
[6] = test system: cytomegalovirus (CMV); experiment: Cytomegalovirus replication in infected RAW 264.5 macrophages; conditions: RAW 264.5 macrophages infected with CMV; FIG. 6

Compound	effect on induction of active NF-κB [1]	effect on NO levels (measured as NO2-) induced by γ-IFN and LPS [2]	effect on induction of iNOS protein [3]	effect on replication of HSV [4]	effect on level and/or phosphorylation of p-ERK [5]	effect on CMV replication [6]
Cc1cccc(Cc2nnc(C(=O)C(NC(=O)[C@@H]3CCCN3C(=O)[C@@H](NC(=O)OCc3ccccc3)C(C)C)C(C)C)o2)c1 (stereo partly drawn) [CE-2072, benzyloxycarbonyl-L-valyl-N-[1-(2-[5-(3-methylbenzyl)-1,3,4-oxadiazolyl]carbonyl)-2-(S)-methylpropyl]-L-prolinamide, reference compound]	inhibit the induction of active NF-κB	inhibits NO levels	–	–	–	–
α1-antitrypsin	inhibit the induction of active NF-κB	efficiently block γ-IFN- and LPS-induced NO synthesis; also recorded: inhibits NO levels	inhibits induction of iNOS protein	inhibits replication of HSV	inhibits the level and/or phosphorylation of p-ERK	blocks CMV replication
